Laboratory results published in patent US20210283261A1, “Compositions and Methods for Treating ALK-Mediated Cancer” (ICAHN SCHOOL OF MEDICINE AT MOUNT SINAI, priority 2017, published 2021).

Assays:
Format in all cases: cell-based
ALK fusion protein = target: T1, ALK fusion protein (Homo sapiens, UniProt Q9UM73); assay: Western blot of ALK fusion protein levels in NCI-H3122 cells; details: for Dmax at 0.5 µM: NCI-H3122, NCI-H3122 cells, 500 nM, Western blot, read-out: ALK fusion protein degradation, NCI-H3122 (500 nM); for effect on ALK fusion protein levels, concentration dependence: NCI-H3122 cells, 0, 50, 100, 200, 400 and 800 nM; for effect on ALK fusion protein levels, concentration dependence / significantly reduced ALK fusion protein levels (degraders vs negative controls): 16 h; for significantly reduced ALK fusion protein levels (degraders vs negative controls): NCI-H3122 cells
T1 construct: endogenous in cells; host or cells: NCI-H3122; the other entry of the earlier key: EML4 (Q9HC35, Echinoderm microtubule-associated protein-like 4)
T1 sequence (Q9UM73 with tags, fused parts or gaps): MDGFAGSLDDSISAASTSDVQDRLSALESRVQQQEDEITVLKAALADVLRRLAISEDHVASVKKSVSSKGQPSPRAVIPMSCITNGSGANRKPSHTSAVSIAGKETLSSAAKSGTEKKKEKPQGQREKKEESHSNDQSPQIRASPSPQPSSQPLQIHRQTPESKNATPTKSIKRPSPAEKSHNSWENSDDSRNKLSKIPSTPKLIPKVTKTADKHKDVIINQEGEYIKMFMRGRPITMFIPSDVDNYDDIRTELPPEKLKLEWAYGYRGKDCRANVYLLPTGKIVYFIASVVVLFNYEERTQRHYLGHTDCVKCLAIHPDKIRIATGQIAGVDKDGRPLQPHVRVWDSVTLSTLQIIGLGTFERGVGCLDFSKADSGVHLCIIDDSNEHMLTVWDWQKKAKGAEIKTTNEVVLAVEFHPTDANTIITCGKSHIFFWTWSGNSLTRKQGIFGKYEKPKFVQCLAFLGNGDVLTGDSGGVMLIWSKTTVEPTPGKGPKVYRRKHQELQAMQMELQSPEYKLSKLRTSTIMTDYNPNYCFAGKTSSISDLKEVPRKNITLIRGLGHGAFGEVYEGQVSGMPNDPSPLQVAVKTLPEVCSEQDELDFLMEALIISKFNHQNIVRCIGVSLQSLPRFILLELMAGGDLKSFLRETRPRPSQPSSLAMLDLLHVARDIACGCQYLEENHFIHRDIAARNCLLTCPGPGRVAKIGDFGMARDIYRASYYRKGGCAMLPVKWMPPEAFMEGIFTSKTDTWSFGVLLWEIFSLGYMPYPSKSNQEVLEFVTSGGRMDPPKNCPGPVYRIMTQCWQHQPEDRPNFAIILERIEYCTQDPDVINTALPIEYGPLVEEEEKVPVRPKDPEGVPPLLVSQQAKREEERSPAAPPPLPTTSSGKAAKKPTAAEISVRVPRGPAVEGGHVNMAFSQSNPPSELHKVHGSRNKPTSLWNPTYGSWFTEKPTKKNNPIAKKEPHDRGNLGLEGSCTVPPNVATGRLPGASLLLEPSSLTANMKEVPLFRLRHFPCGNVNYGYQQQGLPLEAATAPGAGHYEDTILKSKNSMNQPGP

ALK = assay: Characterization of ALK degraders in ALCL and NSCLC cells (summary); details: summary statement
From the text: Specific exemplary ALK degraders/disruptors were characterized in various different anaplastic large cell lymphoma (ALCL) cells and non-small cell lung cancer (NSCLC) cells (Examples 4-19, FIGS. 1-18). […] This efficacy in suppressing ALK expression and ALK activity correlated with efficacy in inhibiting cancer cell proliferation.

SU-DHL-1 cells = assay: Cell viability assay in SU-DHL-1 cells; details: 3 days
Description: (§1) SU-DHL-1 cells were seeded in 96-well plates at a density of 1×10^4 cells per well, in triplicate. Treated cells with DMSO or indicated serial dilutions of compounds for 2.5 days. Cell growth/survival was measured by using the CellTiter-Glo luminescent cell viability assay following the manufacturer's instructions (Promega) or CCK8 cell viability assay (Sigma). Data was analyzed by using the GraphPad Prism software, Error bars represent ±SD for triplicate experiments.
as §1, with “assay.” for “assay following the manufacturer's instructions (Promega) or CCK8 cell viability assay (Sigma).”, “experiments (left panel).” for “experiments.”
SU-DHL-1 cells were seeded in 96-well plates at a density of 5000 cells per well, in triplicate. The cells were treated with DMSO or indicated serial dilutions of compounds for 3 days. Cell growth was measured using the CellTiter-Glo luminescent cell viability assay. Data were analyzed using the GraphPad Prism.
(§2) SU-DHL-1 and NCI-3122 cells were treated with DMSO or indicated serial dilutions of compounds for 3 days. Data were analyzed using the GraphPad Prism.

NCI-H3122 cells = assay: Cell viability assay in NCI-H3122 cells; details: 3 days
Description: SU-DHL-1, NCI-H3122 and NCI-H2228 cells were cultured in RPMI-1640 medium supplemented with 10% fetal bovine serum, 50 μg/mL penicillin and streptomycin. Cells were cultured in a 37° C. incubator with 5% CO2.
as §2

NPM-ALK fusion protein = target: T2, NPM-ALK fusion protein (Homo sapiens, UniProt Q9UM73); assay: Western blot of NPM-ALK fusion protein levels in SU-DHL-1 cells; details: for effect on ALK fusion protein levels, concentration dependence: SU-DHL-1 cells, 0, 10, 20, 40, 80 and 160 nM; for effect on ALK fusion protein levels, concentration dependence / significantly reduced ALK fusion protein levels (degraders vs negative controls): 16 h; for rescue of induced ALK fusion protein degradation by MG-132 and MLN4924 / significantly reduced ALK fusion protein levels (degraders vs negative controls): SU-DHL-1 cells; for rescue of induced ALK fusion protein degradation by MG-132 and MLN4924: 2 h pre-treatment, then 100 nM compound for 6 h
T2 construct: endogenous in cells; host or cells: SU-DHL-1; the other entry of the earlier key: NPM1 (P06748, Nucleophosmin)
T2 sequence (Q9UM73 with tags, fused parts or gaps): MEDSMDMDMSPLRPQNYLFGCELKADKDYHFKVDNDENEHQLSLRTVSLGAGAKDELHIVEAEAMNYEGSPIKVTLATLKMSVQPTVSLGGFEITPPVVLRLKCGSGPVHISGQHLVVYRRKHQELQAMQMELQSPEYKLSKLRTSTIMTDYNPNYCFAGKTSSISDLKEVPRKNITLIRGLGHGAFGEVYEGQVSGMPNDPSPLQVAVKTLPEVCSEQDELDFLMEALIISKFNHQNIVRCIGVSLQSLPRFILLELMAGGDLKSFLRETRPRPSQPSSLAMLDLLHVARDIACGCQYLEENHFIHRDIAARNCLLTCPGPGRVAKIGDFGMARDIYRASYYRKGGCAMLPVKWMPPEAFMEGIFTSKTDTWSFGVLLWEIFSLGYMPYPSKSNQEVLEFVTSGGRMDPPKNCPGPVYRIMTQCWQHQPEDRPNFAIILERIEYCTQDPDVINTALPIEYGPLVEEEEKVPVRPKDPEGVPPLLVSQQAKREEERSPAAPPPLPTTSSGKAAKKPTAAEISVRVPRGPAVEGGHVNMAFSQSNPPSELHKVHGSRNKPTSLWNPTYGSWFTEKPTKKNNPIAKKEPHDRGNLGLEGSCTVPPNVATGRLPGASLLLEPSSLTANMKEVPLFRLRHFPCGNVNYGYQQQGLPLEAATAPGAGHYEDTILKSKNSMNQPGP
In short: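 SU-DHL-1 cells treated with DMSO or compound serial dilutions for 16 h, or at 30 nM or 100 nM for varying times. NPM-ALK and phospho-ALK (Tyr1507) levels measured by Western blot and normalized to GAPDH.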

SMILES | Dmax at 0.5 µM (ALK fusion protein) [%] | effect on ALK fusion protein levels, concentration dependence (ALK fusion protein) | significantly reduced ALK fusion protein levels (degraders vs negative controls) (ALK fusion protein) | suppressing both ALK expression and ALK activity (ALK) | inhibition of cell viability (SU-DHL-1 cells) | inhibition of cell viability (NCI-H3122 cells) | effect on ALK fusion protein levels, concentration dependence (NPM-ALK fusion protein) | rescue of induced ALK fusion protein degradation by MG-132 and MLN4924 (NPM-ALK fusion protein) | significantly reduced ALK fusion protein levels (degraders vs negative controls) (NPM-ALK fusion protein)
Cc1cc(Nc2ncc(Cl)c(Nc3ccccc3S(=O)(=O)C(C)C)n2)c(OC(C)C)cc1C1CCN(C(=O)CCCC(=O)N[C@H](C(=O)N2C[C@H](O)C[C@H]2C(=O)NCc2ccc(-c3scnc3C)cc2)C(C)(C)C)CC1 [CZ47-23, (2S,4R)-1-((S)-2-(5-(4-(4-((5-Chloro-4-((2-(isopropylsulfonyl)phenyl)amino)pyrimidin-2-yl)amino)-5-isopropoxy-2-methylphenyl)piperidin-1-yl)-5-oxopentanamido)-3,3-dimethylbutanoyl)-4-hydroxy-N-(4-(4-methylthiazol-5-yl)benzyl)pyrrolidine-2-carboxamide] | > 80 | concentration-dependently reduced | significantly reduced | especially effective | significantly inhibited | significantly inhibited | concentration-dependently reduced | significantly rescued | significantly reduced
Cc1cc(Nc2ncc(Cl)c(Nc3ccccc3S(=O)(=O)C(C)C)n2)c(OC(C)C)cc1C1CCN(C(=O)CCCCC(=O)N[C@H](C(=O)N2C[C@H](O)C[C@H]2C(=O)NCc2ccc(-c3scnc3C)cc2)C(C)(C)C)CC1 [CZ47-24, (2S,4R)-1-((S)-2-(6-(4-(4-((5-Chloro-4-((2-(isopropylsulfonyl)phenyl)amino)pyrimidin-2-yl)amino)-5-isopropoxy-2-methylphenyl)piperidin-1-yl)-6-oxohexanamido)-3,3-dimethylbutanoyl)-4-hydroxy-N-(4-(4-methylthiazol-5-yl)benzyl)pyrrolidine-2-carboxamide] | > 80 | concentration-dependently reduced | significantly reduced | especially effective | significantly inhibited | significantly inhibited | concentration-dependently reduced | significantly rescued | significantly reduced
Cc1cc(Nc2ncc(Cl)c(Nc3ccccc3S(=O)(=O)C(C)C)n2)c(OC(C)C)cc1C1CCN(C(=O)COCCOCC(=O)N[C@H](C(=O)N2C[C@H](O)C[C@H]2C(=O)N[C@@H](C)c2ccc(-c3scnc3C)cc2)C(C)(C)C)CC1 [HC58-98, (2S,4R)-1-((S)-2-(2-(2-(2-(4-(4-((5-Chloro-4-((2-(isopropylsulfonyl)phenyl)amino)pyrimidin-2-yl)amino)-5-isopropoxy-2-methylphenyl)piperidin-1-yl)-2-oxoethoxy)ethoxy)acetamido)-3,3-dimethylbutanoyl)-4-hydroxy-N—((S)-1-(4-(4-methylthiazol-5-yl)phenyl)ethyl)pyrrolidine-2-carboxamide] | > 80 | concentration-dependently reduced | – | especially effective | significantly inhibited | significantly inhibited | concentration-dependently reduced | – | –
Cc1cc(Nc2ncc(Cl)c(Nc3ccccc3S(=O)(=O)C(C)C)n2)c(OC(C)C)cc1C1CCN(C(=O)CCCC(=O)N[C@H](C(=O)N2C[C@H](O)C[C@H]2C(=O)N[C@@H](C)c2ccc(-c3scnc3C)cc2)C(C)(C)C)CC1 [HC58-99, (2S,4R)-1-((S)-2-(5-(4-(4-((5-Chloro-4-((2-(isopropylsulfonyl)phenyl)amino)pyrimidin-2-yl)amino)-5-isopropoxy-2-methylphenyl)piperidin-1-yl)-5-oxopentanamido)-3,3-dimethylbutanoyl)-4-hydroxy-N—((S)-1-(4-(4-methylthiazol-5-yl)phenyl)ethyl)pyrrolidine-2-carboxamide] | > 80 | concentration-dependently reduced | – | especially effective | significantly inhibited | significantly inhibited | concentration-dependently reduced | – | –
Cc1cc(Nc2ncc(Cl)c(Nc3ccccc3S(=O)(=O)C(C)C)n2)c(OC(C)C)cc1C1CCN(C(=O)CCCCC(=O)N[C@H](C(=O)N2C[C@H](O)C[C@H]2C(=O)N[C@@H](C)c2ccc(-c3scnc3C)cc2)C(C)(C)C)CC1 [HC58-100] | > 80 | concentration-dependently reduced | – | especially effective | significantly inhibited | significantly inhibited | concentration-dependently reduced | – | –
